3 molecules from patent US20260191986A1, “LIPOSOME-BASED DRUG CARRIER FOR IMMUNE ANTICANCER THERAPY AND METHOD FOR PRODUCING SAME” (KONKUK UNIVERSITY INDUSTRIAL COOPERATION CORP, priority 2022, published 2026) can be followed below.

The test system of data set [1] is 4T1 cells. As to the kind of experiment: Cell surface CRT expression (ICD biomarker) after DOX or CIS. The class given is cell-based, mouse. Conditions: different concentrations of drug. As for the experimental part: (§1) First, the efficacy of doxorubicin (DOX) as a potent ICD inducer in a breast cancer 4T1 tumor model and cancer cells was tested by monitoring the change in the TME (tumor microenvironment). To validate the immunogenic effect of DOX, immunogenic cell death (ICD) biomarkers, such as extracellularly released ATP and cell surface expressing CRT, were monitored in breast cancer cells (human: MDA-MB-231 cells; mouse: 4T1 cells) treated with different concentrations of DOX and cisplatin (CIS), a non-ICD inducer, as a comparative control group.

For data set [2], the system named is MDA-MB-231 cells. As to the kind of experiment: Extracellularly released ATP (ICD biomarker) after DOX or CIS. Format: cell-based, human. Conditions: different concentrations of drug. As for the experimental part: as §1
The subject of data set [3] is 4T1 cells. As to the kind of experiment: Vaccine approach: tumor growth in Balb/c mice vaccinated with drug-treated dead 4T1 cells. The class given is in vivo. The note with it: DOX 30 μM or CIS 100 μM; live 4T1 cells in opposite flank; 25 days. On the procedure: (§2) The effect of DOX-induced ICD in Balb/c mice was further validated by vaccine approach. Dead 4T1 cells were subcutaneously injected into one flank of Balb/c mice together with an anticancer agent such as DOX (30 μM) or CIS (100 μM), or phosphate-buffered saline (PBS; control), twice for 2 weeks, with a 1-week interval. At two weeks after the first injection, live 4T1 cancer cells were injected into the opposite flank and the change in tumor size was evaluated for 25 days.

In data set [4] the test system is IDO1. As to the kind of experiment: IDO1 expression in tumors obtained by vaccine approach. Format: in vivo, Balb/c mice. The note with it: mice vaccinated with drug-treated 4T1 cells. On the procedure: as §2
(§3) Subsequently, it was investigated whether the DOX-induced ICD can induce the expression of IDO1 in a breast cancer mouse model as an indicator of the immune evasion mechanism in TME. In order to investigate the relationship between the expression of ICD and IDO1 in TME, the expression level of IDO1 in the tumors obtained by vaccine approach was investigated, and the result is shown in FIG. 4. […] Meanwhile, it was confirmed that the DOX-induced ICD upregulates IDO1 expression in tumor tissues via the immune evasion mechanism.

For data set [5], the system named is 4T1 cells. As to the kind of experiment: Extracellularly released ATP (ICD biomarker) after DOX or CIS. Format: cell-based, mouse. Conditions: different concentrations of drug. On the procedure: as §1
The test system of data set [6] is MDA-MB-231 cells. As to the kind of experiment: Cell surface CRT expression (ICD biomarker) after DOX or CIS. Format: cell-based, human. The note with it: different concentrations of drug. As for the experimental part: as §1
Data set [7] deals with MDA-MB-231 cells. As to the kind of experiment: Intracellular distribution of DOX by confocal microscopy. Format: cell-based, human. As for the experimental part:
(§4) In order to investigate the intracellular distribution of DOX and IDO1 siRNA delivered by the CD44/PD-L1 aptamosome, cells were treated with free DOX, Lipm [DOX/IDO1] and Aptm [DOX/IDO1] and analyzed by confocal microscopy with increasing incubation time. […] Nevertheless, a large amount of DOX was delivered easily by Aptm [DOX/IDO1] with the passage of time, and it was gradually delivered into the nucleus of MDA-MB-231 and 4T1 cells within 2 hours.

Data set [8] deals with control group liver cells (HepG2). As to the kind of experiment: Cytotoxicity (cell survivability). Format: cell-based. Conditions: 24 hours and 36 hours. As for the experimental part: (§5) Next, the cytotoxicity by an anticancer agent delivered together with Aptm [DOX/IDO1] was evaluated, and the result is shown in FIG. 16. Breast cancer cells (MDA-MB-231 and 4T1) and control group liver cells (HepG2) were treated with free DOX, Lipm [DOX/IDO1] and Aptm [DOX/IDO1] for 24 hours and 36 hours.

In a further data set the test system is MDA-MB-231. As to the kind of experiment: Cytotoxicity (cell survivability). The class given is cell-based, human. The note with it: 24 hours and 36 hours. As for the experimental part:
as §5

The test system of another data set is TNFα. As to the kind of experiment: TNFα secretion in the tumor of 4T1 tumor xenograft mice. Conditions: mouse, in vivo. As for the experimental part:
As the effect of Aptm [DOX/IDO1] on the control of tumor microenvironment (TME), cell death, ICD marker, immune cell ratio and TNF secretion in the tumor tissue of 4T1 tumor xenograft mice were evaluated. In order to investigate DOX-induced apoptotic cell death, TUNEL assay was conducted with the tumor tissues of 4T1 tumor xenograft mice.
(§6) The effective inhibition of tumor growth improves anticancer immune response by reversing immunosuppressive TME to immunoresponsive TME in vivo by Aptm [DOX/IDO1]. In order to investigate whether tumor size reduction and TME control are mediated by IDO1 siRNA delivered to the 4T1 tumor xenograft mice, the IDO1 expression level in the tumor tissue of the mice was analyzed on day 24, and the result is shown in FIG. 20. The IDO1 expression level in the tumor obtained from the mice treated with free DOX was increased as compared to the IDO1 expression level in the tumor obtained from the mice treated with saline. […] In the tumor, the IDO1 expression was increased by the administration of Aptm [DOX/Ctr] lacking IDO1 siRNA. It is thought that the increased IDO1 expression is due to the improved ICD against the tumor due to the effective delivery of DOX using the CD44/PD-L1 aptamosome. Accordingly, the inhibition of IDO1 in combination with ICD can induce anticancer immune response in the immunoresponsive TME by Aptm [DOX/IDO1].

For the next data set, the system named is breast cancer cells. As to the kind of experiment: DOX-induced ICD: extracellular ATP release after liposome treatment. Format: cell-based. On the procedure:
Then, DOX-induced ICD was evaluated by monitoring extracellular ATP release and expression of cell surface CRT, which is an ICD marker, and the result is shown in FIG. 14.

The subject of data set [9] is 4T1 cells. As to the kind of experiment: Intracellular distribution of DOX by confocal microscopy. The class given is cell-based, mouse. As for the experimental part: as §4
Another data set concerns 4T1 breast cancer cells. As to the kind of experiment: Tumor metastasis to the lung in 4T1 tumor-bearing mice (H&E). Format: in vivo. Conditions: H&E staining of lung tissue. The text has this: Finally, it was investigated whether the administration of Aptm [DOX/IDO1] can inhibit tumor metastasis in 4T1 tumor-bearing mice. For detection of metastatic tumors, tumor tissues from the terminal part of the lung of the mice were stained with hematoxylin and eosin (H&E), and the images are shown in FIG. 21. […] Therefore, it was confirmed that the systemic administration of Aptm [DOX/IDO1] through the blood can inhibit tumor metastasis through targeted delivery of an anticancer drug targeting breast cancer cells.

Another data set concerns 4T1 tumor. As to the kind of experiment: Anticancer efficacy in 4T1 tumor xenograft mice (tumor size). Format: in vivo. Conditions: i.v. 4 times with 4-day intervals; DOX 0.3 mg/kg, siRNA 0.35 mg/kg; day 24. On the procedure: In addition, the anticancer efficacy of Aptm [DOX/IDO1] in the 4T1 tumor xenograft mice was investigated by measuring the decrease of tumor size, and the result is shown in FIG. 18. After the tumor size grew to 60-80 mm^3, the mice were divided randomly into 5 groups (5 mice per group) and each reagent was intravenously 4 times with 4-day intervals: saline (control group), free DOX (0.3 mg/kg), Lipm [DOX/IDO1], Aptm [DOX/IDO1] and Aptm [DOX/Ctr], each liposome containing the same amount of DOX (0.3 mg/kg) and siRNA (0.35 mg/kg). […] Morbidity was not observed when the mice were treated with Aptm [DOX/IDO1]. In particular, when the mice were treated with Aptm [DOX/Ctr] containing scrambled siRNA instead of IDO1 siRNA, the tumor size decreased by about 37.0% (vs. saline administration) due to decreased effect of inhibiting tumor growth. That is, the delivered IDO siRNA inhibits tumor growth by controlling TME.

Data set [10] deals with IDO1. As to the kind of experiment: IDO1 expression level in tumor tissue of 4T1 tumor xenograft mice. The class given is in vivo. Conditions: day 24. On the procedure: as §6
The subject of the next data set is 4T1. As to the kind of experiment: Cytotoxicity (cell survivability). Format: cell-based, mouse. Conditions: 24 hours and 36 hours. As for the experimental part:
as §5

Data set [11] concerns MDA-MB-231 cells. As to the kind of experiment: IDO1 and PD-L1 expression under IFNγ stimulation. Format: cell-based, human.
Description: (§7) ICD-mediated immune response can invalidate the immune evasion mechanism of TME, such as overexpression of the immune checkpoint protein and IDO1. Accordingly, the expression of IDO1 and PD-L1 under IFNγ stimulation was monitored also in MDA-MB-231 and 4T1 cells.
as §3

The subject of data set [12] is 4T1 cells. As to the kind of experiment: IDO1 and PD-L1 expression under IFNγ stimulation. Format: cell-based, mouse.
Description: as §7, §3

As to `N.N.[Cl][Pt][Cl]` [CIS, cisplatin], the “CRT expression on the cancer cell surface” value in the data set with 4T1 cells [1] and with MDA-MB-231 cells [6] was “did not increase the CRT expression on the cancer cell surface” each time. Besides, the “level of extracellularly released ATP” value with MDA-MB-231 cells [2] and in the data set with 4T1 cells [5] was “did not increase the level of extracellular ATP” throughout. In addition, in the data set on 4T1 cells [3], the “tumor growth after vaccination with drug-treated dead 4T1 cells” value was “did not inhibit tumor growth significantly”. Also, in the data set with IDO1 [4], the “IDO1 protein and mRNA expression in tumor tissues” value is “increased expression of IDO1 protein and mRNA”.
As to `COc1cccc2c1C(=O)c1c(O)c3c(c(O)c1C2=O)C[C@@](O)(C(=O)CO)C[C@@H]3O[C@H]1C[C@H](N)[C@H](O)[C@H](C)O1` [DOX, doxorubicin], the “CRT expression on the cancer cell surface” value in the data set with 4T1 cells [1] and in the data set on MDA-MB-231 cells [6] was “increased gradually as the concentration of DOX increased” throughout. Further, the “time until DOX reached the nucleus” value in the data set on MDA-MB-231 cells [7] and with 4T1 cells [9] was “up to 1 hour” each time. The “level of extracellularly released ATP” value in the data set on MDA-MB-231 cells [2] and in the data set on 4T1 cells [5] was “increased gradually with the concentration of DOX” throughout. The cell survivability result (in data set [8]; in the data set with MDA-MB-231; in the data set on 4T1) was “lowest” each time. Moreover, in the data set on 4T1 cells [3], the “tumor growth after vaccination with drug-treated dead 4T1 cells” value was “effectively inhibited tumor growth”. The “IDO1 protein and mRNA expression in tumor tissues” value in the data set with IDO1 [4] was “highest IDO1 protein and mRNA expression”. Also, the “TNFα secretion in the tumor” value with TNFα was “relatively low TNFα secretion”. Further, in the data set with breast cancer cells, the “extracellular ATP release” value is given as “A large amount of ATP was released”. Also, the “metastatic tumor in the lung” value in the data set with 4T1 breast cancer cells was “extensive filtration of 4T1 breast cancer cells was observed in the lung”. Further, the “tumor size decrease as compared to saline” value with 4T1 tumor is “did not reduce tumor size enough”. Moreover, the “IDO1 expression level in the tumor” value with IDO1 [10] is listed as “increased”.
On to “IFNγ: cytokine used to stimulate IDO1 and PD-L1 expression in cancer cells”, for which the “expression level of IDO1” value with MDA-MB-231 cells [11] (IFNγ stimulation) and in the data set with 4T1 cells [12] (IFNγ stimulation) was “significantly upregulated” in each case. Moreover, the “PD-L1 expression on the cell surface” value with MDA-MB-231 cells [11] (IFNγ-treated cells) and with 4T1 cells [12] (IFNγ-treated cells) was “highly expressed” throughout.
